Test results reported in patent US8268805B2, “Use of ceramides for depigmenting the skin” (L'Oreal, priority 2005, dated 2012).

Tests used:
[1] = system: coculture of keratinocytes and melanocytes; assay: Modulatory effect on melanogenesis: inhibition of melanin synthesis (thiouracil/leucine incorporation ratio); format: cell-based; conditions: ratio of thiouracil to leucine incorporation related to 100% of control, read-out: IC50 (concentration for which 50% of the melanin synthesis is inhibited)
Procedure: The modulatory effect on melanogenesis of the compounds tested was measured according to the method described in patent FR-A-2734825, and also in the article by R. Schmidt, P. Krien and M. Regnier, Anal. Biochem., 235(2), 113-18, 1996. This test is carried out on a coculture of keratinocytes and melanocytes.
For the compound tested, the inhibitory activity on melanin synthesis was determined by estimating the ratio of thiouracil incorporation to leucine incorporation, related to 100% of the control (the control corresponds to the test carried out without compound to be tested). The IC50 values (concentration for which 50% of the melanin synthesis is inhibited) were determined.
The test was also carried out with arbutin and lucinol (2-butylbenzene-1,3-diol), which are known depigmenting compounds.

[2] = system: tyrosinase activity of the melanocytes of human skin; conditions: cited from earlier work

Row | SMILES | IC50 [1] | effect on the tyrosinase activity of the melanocytes of human skin [2]
1 | OC[C@H]1O[C@@H](Oc2ccc(O)cc2)[C@H](O)[C@@H](O)[C@@H]1O [Arbutin] | 209000 nM | –
2 | CCCCCCCCCCCCCCCC(O)C(CO)NC(=O)C(O)CCCCCCCCCCCCCC (centres unmarked) [N-2-hydroxypalmitoyldihydrosphingosine] | 100 nM | –
3 | CCCCCCCCCCCCC/C=C/[C@@H](O)[C@H](CO)NC(C)=O [N-acetyl-D-erythrosphingosine] | – | has an effect
4 | CCCCCCCC/C=C\CCCCCCCC(=O)NC(CO)C(O)CCCCCCCCCCCCCCC (centres unmarked) [N-oleoyldihydrosphingosine] | 100 nM | –
5 | CCCCCCCCCCCCC/C=C/[C@@H](O)[C@@H](N)COP(=O)(O)O [sphingosine-1-phosphate] | – | no effect
